Results taken from US20250025454A1 (priority 2021, published 2025).
Converted amounts (≈) assume the structure as drawn. “And” between values parts separate entries of the source, which are not always exact repeats. Equal values may be shown once. “Also recorded” adds a separate entry of the source. Read-outs that look alike come from different tables or passages of the source.

What was measured:
[1] = Scripps ReFrame database; cited from earlier work
[2] = in vivo; cited from earlier work
[3] = Pharmacokinetics (plasma and lung tissue) after single and 5-day repeat oral dosing in female 129S1 mice; details: for adverse reactions / tolerability: female 129S1 mice, PO 50 and 250 mg/kg up to 5 days; for Kp: Lung/Plasma AUC ratio; for AUC(0-t): AUClast ± SE; for MRT last at 5 day / MRT last: MRTlast; for Kp at 24 h: L/P Ratio, non-infected mice, 250 mg/kg QD oral
[4] = female, 129S1, mouse, in vivo, po
in vivo = details: female, 129S1, mouse; for Tmax: range
SARS-CoV-2 [5] = details: Scripps ReFrame database; cited from earlier work
SARS-CoV-2/WA1 = format: cell-based
SARS-CoV-2 [6] = details: Scripps ReFrame database; cited from earlier work; remark: listed apart in the source
[7] = single oral dose, comparable for all doses; cited from earlier work
[8] = female, 129S1, mouse, in vivo, 250 mg/kg
[9] = female, 129S1, mouse, in vivo, po, 50 mg/kg
[10] = female, 129S1, mouse, in vivo, po, 50 mg/kg, plasma, 50 mg/kg PO multiple, 5-day, dose
[11] = female, 129S1, mouse, in vivo, po, 50 mg/kg, plasma, 50 mg/kg PO single dose
[12] = female, 129S1, mouse, in vivo, po, 250 mg/kg
[13] = female, 129S1, mouse, in vivo, po, 250 mg/kg, plasma, 250 mg/kg PO multiple, 5-day, dose
[14] = female, 129S1, mouse, in vivo, po, 250 mg/kg, plasma, 250 mg/kg PO single dose
[15] = female, 129S1, mouse, in vivo, po, 250 mg/kg, lung, 250 mg/kg PO multiple, 5-day, dose

## Cc1c(-c2ccc(O)cc2)n(Cc2ccc(OCCN3CCCCC3)cc2)c2ccc(O)cc12 [Pipendoxifene, 2-(4-hydroxyphenyl)-3-methyl-1-[[4-(2-piperidin-1-ylethoxy)phenyl]methyl]indol-5-ol]
[1]
  activity in HTS: INACTIVE
[2]
  primary metabolite: indole glucuronide
[3]; 50 mg/kg
  Lung Cmax over SARS-CoV-2 IC50: 17 fold
[3]; 50 mg/kg PO single dose, 1.0 hr
  Mean plasma concentration: 89.1 ng/mL
[3]; 250 mg/kg
  Lung Cmax over SARS-CoV-2 IC50: 121 fold
[3]; 250 mg/kg PO single dose, 0.5 hr
  Mean plasma concentration: 88.8 ng/mL
[3]
  adverse reactions / tolerability: no adverse events
[3]; listed as MDL-001
  adverse reactions / tolerability: well tolerated with no adverse clinical signs; also recorded: No adverse reactions were observed
[3]; listed as pipendoxifene
  adverse reactions / tolerability: No adverse reactions were observed
[3]; female, 129S1, mouse, in vivo, 50 mg/kg
  concentration at 8 hr: 7840 ng/g
[3]; female, 129S1, mouse, in vivo, 50 mg/kg, Day 1, 50 mg/kg
  Kp: 65
[3]; female, 129S1, mouse, in vivo, 50 mg/kg, Day 5, 50 mg/kg
  Kp: 56
[3]; [8]
  concentration at 8 h: 575 ± 194 ng/mL
  concentration at 8 hr: 121 ng/mL
  half-life: 2.36 to 3.96 h
[3]; female, 129S1, mouse, in vivo, 250 mg/kg, Day 1, 250 mg/kg
  Kp: 36
[3]; female, 129S1, mouse, in vivo, 250 mg/kg, Day 5, 250 mg/kg
  Kp: 44
[3]; [9]
  Cmax: 179 ng/mL and 8310 ng/g
  Cmax at 5 day: 5610 ± 925 ng/g
  half-life: 2.36 h
  half-life at 5 day: 2.58 h
[3]; [10]
  AUC(0-t): 1390 ± 55 ng·h/mL
  AUC(0-inf): 1400 ng·h/mL
  MRT last at 5 day: 7.1 h
[3]; [11]
  AUC(0-t): 1600 ± 115 ng·h/mL
  AUC(0-inf): 1600 ng·h/mL
  MRT last: 6.95 h
  Tmax: 2 h
[3]; female, 129S1, mouse, in vivo, po, 50 mg/kg, lung, 50 mg/kg PO multiple, 5-day, dose
  Tmax at 5 day: 8 h
[3]; female, 129S1, mouse, in vivo, po, 50 mg/kg, lung, 50 mg/kg PO single dose
  Tmax: 4 h
[3]; [12]
  Cmax: 1020 ng/mL and 24700 ng/g
  Cmax at 5 day: 39000 ± 8840 ng/g
  half-life: 3.96 h
  half-life at 5 day: 2.52 h
[3]; [13]
  AUC(0-t): 11600 ± 1190 ng·h/mL
  AUC(0-inf): 11700 ng·h/mL
[3]; [14]
  AUC(0-inf): 10500 ng·h/mL
  MRT last: 8.86 h
[3]; female, 129S1, mouse, in vivo, po, 250 mg/kg, Day 1
  Kp at 24 h: 114
[3]; female, 129S1, mouse, in vivo, po, 250 mg/kg, Day 5
  Kp at 24 h: 177
[3]; [15]
  MRT last at 5 day: 7.22 h
  Tmax at 5 day: 4 h
[3]; female, 129S1, mouse, in vivo, po, 250 mg/kg, lung, 250 mg/kg PO single dose
  Tmax: 8 h
[3]; female, 129S1, mouse, lung, oral, 50 mg/kg, Mean lung tissue concentration, 50 mg/kg PO multiple, 5-day, dose, 8.0 hr
  concentration at 8 h: 5610 ± 1600 ng/g
[3]; female, 129S1, mouse, plasma, oral, 50 mg/kg, Mean plasma concentration, 50 mg/kg PO single dose, 1.0 hr
  concentration at 1 hr: 89.1 ± 71.2 ng/mL
[3]; female, 129S1, mouse, plasma, oral, 50 mg/kg, Mean plasma concentration, 50 mg/kg PO single dose, 4.0 hr
  concentration at 4 h: 107 ± 23 ng/mL
[3]; female, 129S1, mouse, plasma, oral, 50 mg/kg, Plasma Conc., individual mouse, 50 mg/kg PO multiple, 5-day, dose, 2.0 hr
  concentration at 2 hr: 113 ng/mL
[3]; female, 129S1, mouse, plasma, oral, 50 mg/kg, Plasma Conc., individual mouse, 50 mg/kg PO multiple, 5-day, dose, 6.0 hr
  concentration at 6 hr: 163 ng/mL
[3]; female, 129S1, mouse, plasma, oral, 50 mg/kg, Plasma Conc., individual mouse, 50 mg/kg PO single dose, 8.0 hr
  concentration at 8 hr: 113 ng/mL
[3]; female, 129S1, mouse, plasma, oral, 250 mg/kg, Mean plasma concentration, 250 mg/kg PO single dose, 0.5 hr
  concentration at 0.5 h: 88.8 ± 14.1 ng/mL
[3]; female, 129S1, mouse, plasma, oral, 250 mg/kg, Plasma Conc., individual mouse, 250 mg/kg PO multiple, 5-day, dose, 4.0 hr
  concentration at 4 hr: 497 ng/mL
[4]
  lung concentrations achieved: greater than 30 ug/g
[4]; 250 mg/kg, 24 h
  Plasma concentration: 34 ng/mL
In vivo
  Kp: ~50
In vivo; 250 mg/kg, Mean Tmax (plasma)
  Tmax: 2 to 6 h
In vivo; 250 mg/kg, Tmax (lung)
  Tmax: 4 to 8 h
In vivo; po, 50 mg/kg
  Cmax at 5 day: 178 ± 8 ng/mL
  MRT last: 6.79 h
  MRT last at 5 day: 7.35 h
  Tmax at 5 day: 5 h
In vivo; po, 250 mg/kg
  Cmax at 5 day: 1050 ± 230 ng/mL
  MRT last: 8.27 h
  Tmax at 5 day: 6 h
SARS-CoV-2 [5]
  activity in HTS: INACTIVE
SARS-CoV-2/WA1
  IC50 expressed as mass concentration: 0.328 µg/mL (≈ 0.718 µM)
SARS-CoV-2 [6]
  activity in HTS: INACTIVE
[7]
  t1/2: 30 ± 16 h
